Data from patent US11000511B2, “Chemical compounds as antibiotics” (priority 2017, dated 2021).

Legend:
[1] = molecular target: T1, purified LasB protein from P. aeruginosa (Pseudomonas aeruginosa, UniProt P14756); experiment: Fluorometric assay to determine Ki (Assay 1); type: biochemical; details: Ki (μM) Assay 1, purified LasB, substrate Abz-Ala-Gly-Leu-Ala-p-Nitro-Benzyl-Amide 250 μM, Ki calculated from IC50; inhibitor 0.006 to 200 μM
T1 construct: purchased Merck or Charles River Laboratories
Outline: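 Purified LasB (10 to 140 ng/ml) with 250 μM Abz-Ala-Gly-Leu-Ala-p-nitrobenzylamide in 50 mM Tris-HCl pH 7.4, 2.5 mM CaCl2, 0.01% Triton X100; hydrolysis read by fluorescence (Ex 340/Em 415 nm) over 30 min at 37° C. Inhibitor 2-fold series, 0.006–200 μM (Assay 1) or 0.0016–200 μM (Assay 2); IC50 converted to Ki via Ki=IC50/(1+[S]/Km), Km=214 μM.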

[2] = molecular target: T2, LasB elastase activity in dialysed supernatant from P. aeruginosa strain PA01 (Pseudomonas aeruginosa, UniProt P14756); experiment: Elastin Congo Red assay to determine % inhibition (Assay 1); type: biochemical; details: read-out: Elastin hydrolysis % inhibition @ 50/25 μM inhibitor concentration Assay 1
T2 construct: uses as source of enzyme dialysed supernatant from P. aeruginosa; endogenous in cells; host or cells: P. aeruginosa strain PA01 culture supernatant, filtered and dialysed
Outline: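 Enzyme source: PA01 culture supernatant (19 h growth), filtered and dialysed into 50 mM Tris pH 7.4, 2.5 mM CaCl2. Mixed 1:1 with Elastin Congo Red (20 mg/mL) plus 0.01% Triton X-100 and compound (routinely 50 and 25 μM), 24 h at 37 °C shaking. Dye release at OD520 gives % inhibition versus DMSO.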

T2 sequence (P14756 198-498): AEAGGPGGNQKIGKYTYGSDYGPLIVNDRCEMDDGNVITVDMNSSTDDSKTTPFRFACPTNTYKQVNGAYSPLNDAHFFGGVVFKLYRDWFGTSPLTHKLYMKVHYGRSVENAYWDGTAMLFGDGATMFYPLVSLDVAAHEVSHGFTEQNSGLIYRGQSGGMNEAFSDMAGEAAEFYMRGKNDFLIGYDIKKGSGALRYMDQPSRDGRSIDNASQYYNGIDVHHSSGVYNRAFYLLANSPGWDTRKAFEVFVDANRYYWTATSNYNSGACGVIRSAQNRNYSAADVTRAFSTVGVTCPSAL
T1 sequence (P14756 198-498): as above

| Structure (SMILES) | Ki [1] [µM] | inhibition at 50 µM [2] [%] |
| --- | --- | --- |
| N[C@H]1CCN(c2ccc3sc(CNC(=O)C4(CC(=O)O)Cc5ccccc5C4)nc3c2)C1 [Example 103, 2-[2-[[5-[(3 S)-3-aminopyrrolidin-1-yl]-1,3-benzothiazol-2-yl]methylcarbamoyl]indan-2-yl]acetic acid] | 0.3 to 2 | > 60 |
| N[C@@H]1CCN(c2ccc3sc(CNC(=O)C4(CC(=O)O)Cc5ccccc5C4)nc3c2)C1 [Example 104, 2-[2-[[5-[(3R)-3-aminopyrrolidin-1-yl]-1,3-benzothiazol-2-yl]methylcarbamoyl]indan-2-yl]acetic acid] | 0.3 to 2 | > 60 |
| CN(C)CCNc1ccc2nc(CNC(=O)C3(CC(=O)O)Cc4ccccc4C3)sc2c1 [Example 105, 2-[2-[[6-[2-(dimethylamino)ethylamino]-1,3-benzothiazol-2-yl]methylcarbamoyl]indan-2-yl]acetic acid] | 0.3 to 2 | 30 to 60 |
| CN1CCN(c2ccc3sc(CNC(=O)C4(CC(=O)O)Cc5ccccc5C4)nc3c2)CC1 [Example 106, 2-[2-[[5-(4-methylpiperazin-1-yl)-1,3-benzothiazol-2-yl]methylcarbamoyl]indan-2-yl]acetic acid] | < 0.3 | > 60 |
| CN(C)CCOc1ccc2nc(CNC(=O)C3(CC(=O)O)Cc4ccccc4C3)sc2c1 [Example 110, 2-[2-[[6-[2-(dimethylamino)ethoxy]-1,3-benzothiazol-2-yl]methylcarbamoyl]indan-2-yl]acetic acid] | 0.3 to 2 | 30 to 60 |
| C[N+](C)(C)CCOc1ccc2nc(CNC(=O)C3(CC(=O)[O-])Cc4ccccc4C3)sc2c1 [Example 111, 2-[2-[[6-[2-(trimethylammonio)ethoxy]-1,3-benzothiazol-2-yl]methylcarbamoyl]indan-2-yl]acetate] | 0.3 to 2 | 30 to 60 |
| CN(C)CCOc1ccc2sc(CNC(=O)C3(CC(=O)O)Cc4ccccc4C3)nc2c1 [Example 112, 2-[2-[[5-[2-(dimethylamino)ethoxy]-1,3-benzothiazol-2-yl]methylcarbamoyl]indan-2-yl]acetic acid] | < 0.3 | > 60 |
| C[N+](C)(C)CCOc1ccc2sc(CNC(=O)C3(CC(=O)[O-])Cc4ccccc4C3)nc2c1 [Example 113, 2-[2-[[5-[2-(trimethylammonio)ethoxy]-1,3-benzothiazol-2-yl]methylcarbamoyl]indan-2-yl]acetate] | 0.3 to 2 | > 60 |
| C[N+]1(C)CCC(OC(=O)[C@H](Cc2c[nH]c3ccccc23)NC(=O)C2(CC(=O)O)Cc3ccccc3C2)CC1 [Example 116, (S)-2-(2-((1-((1,1-dimethylpiperidin-1-ium-4-yl)oxy)-3-(1H-indol-3-yl)-1-oxopropan-2-yl)carbamoyl)-2,3-dihydro-1H-inden-2-yl)acetate] | 0.3 to 2 | > 60 |
| Cc1nnc([C@H](Cc2c[nH]c3ccccc23)NC(=O)C2(CC(=O)O)Cc3ccccc3C2)o1 [Example 117, (S)-2-(2-((2-(1H-indol-3-yl)-1-(5-methyl-1,3,4-oxadiazol-2-yl)ethyl)carbamoyl)-2,3-dihydro-1H-inden-2-yl)acetic acid] | 0.3 to 2 | > 60 |
| NCc1nnc([C@H](Cc2c[nH]c3ccccc23)NC(=O)C2(CC(=O)O)Cc3ccccc3C2)o1 [Example 118, (S)-2-(2-((1-(5-(aminomethyl)-1,3,4-oxadiazol-2-yl)-2-(1H-indol-3-yl)ethyl)carbamoyl)-2,3-dihydro-1H-inden-2-yl)acetic acid] | < 0.3 | > 60 |
| O=C(O)CC1(C(=O)NCc2nc3cnccc3s2)Cc2ccccc2C1 [Example 127, 2-[2-(thiazolo[4,5-c]pyridin-2-ylmethylcarbamoyl)indan-2-yl]acetic acid] | 0.3 to 2 | > 60 |
| CN1CCc2nc(CNC(=O)C3(CC(=O)O)Cc4ccccc4C3)sc2C1 [Example 129, 2-[2-[(5-methyl-6,7-dihydro-4H-thiazolo[5,4-c]pyridin-2-yl)methylcarbamoyl]indan-2-yl]acetic acid] | 0.3 to 2 | 30 to 60 |
| O=C(O)CC1(C(=O)NCc2nc3cc(O)ccc3s2)Cc2ccccc2C1 [Example 130, 2-[2-[(5-hydroxy-1,3-benzothiazol-2-yl)methylcarbamoyl]indan-2-yl]acetic acid] | < 0.3 | > 60 |
